For 22 molecules, IC50 results are on record in patent US10981911B2, “Imidazopyrrolopyridine as inhibitors of the JAK family of kinases” (Janssen Pharmaceutica NV, priority 2016, dated 2021).

Common to all, as to type: biochemical
The target of assay [1] is JAK1-JH1JH2 (Homo sapiens (Human), UniProt P23458). As to the kind of experiment: Enzymatic inhibition assay (RapidFire HTMS), JAK1. The settings on record: 12.5 μM ATP, 200 μM substrate; read-out: JAK1-JH2JH1 IC50. Put shortly:
(§1)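 Quenched with 0.5% TFA plus internal-standard peptide; phosphorylated product quantified by RapidFire C4 SPE–ESI-MS, 11-point 1:3 or 1:4 dilutions in duplicate.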

Assay [2] has as its target JAK2-JH1JH2 (Homo sapiens (Human), UniProt O60674). Briefly: Enzymatic inhibition assay (RapidFire HTMS), JAK2. The settings on record: 30 μM ATP, 40 μM substrate. The method in brief: as §1
Assay [3] addresses JAK3-JH1JH2 (Homo sapiens (Human), UniProt P52333). As to the kind of experiment: Enzymatic inhibition assay (RapidFire HTMS), JAK3. The settings on record: 150 μM ATP, 40 μM substrate. Put shortly:
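Compounds tested in duplicate over 11-point 1:3 or 1:4 dilution series; no-enzyme wells as negative control. After 45 min at 25 °C, TFA quench with internal standard, and phosphorylated product quantified by RapidFire–QTrap mass spectrometry relative to the uninhibited reaction.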

Assay [4] deals with Tyk2-JH1JH2 (Homo sapiens (Human), UniProt P29597, C1142A/C936A). As to the kind of experiment: Enzymatic inhibition assay (RapidFire HTMS), Tyk2. The settings on record: 50 μM ATP, 200 μM substrate. Put shortly: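 Compounds were tested in duplicate as 11-point 1:3 or 1:4 DMSO dilutions (≤0.25% DMSO final) in 20 μL reactions at 25 °C for 90 min, with Tyk2 pre-incubated 30 min with 2 mM ATP. Reactions were quenched with TFA plus internal standard peptide, and phosphorylated product was quantified by RapidFire C4 SPE–ESI MS.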
Chain of Tyk2-JH1JH2 (P29597 580-1182 C936A/C1142A): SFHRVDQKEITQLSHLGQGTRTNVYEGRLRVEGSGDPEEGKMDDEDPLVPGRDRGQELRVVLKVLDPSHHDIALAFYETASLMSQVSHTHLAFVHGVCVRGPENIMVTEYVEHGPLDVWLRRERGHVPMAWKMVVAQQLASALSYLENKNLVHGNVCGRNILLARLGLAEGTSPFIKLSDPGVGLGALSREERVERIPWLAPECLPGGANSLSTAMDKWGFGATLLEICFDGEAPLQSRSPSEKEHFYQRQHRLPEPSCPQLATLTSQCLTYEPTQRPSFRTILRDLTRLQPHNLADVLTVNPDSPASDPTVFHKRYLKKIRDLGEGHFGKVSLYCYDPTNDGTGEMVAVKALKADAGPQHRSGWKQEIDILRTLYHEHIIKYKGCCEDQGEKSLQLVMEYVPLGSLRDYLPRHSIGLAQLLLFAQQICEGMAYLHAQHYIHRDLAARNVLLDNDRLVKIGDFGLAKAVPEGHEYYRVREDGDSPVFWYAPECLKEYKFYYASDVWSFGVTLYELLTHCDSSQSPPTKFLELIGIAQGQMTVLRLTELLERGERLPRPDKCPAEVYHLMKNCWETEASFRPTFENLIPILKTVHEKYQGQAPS

Chain of JAK3-JH1JH2 (P52333 512-1124): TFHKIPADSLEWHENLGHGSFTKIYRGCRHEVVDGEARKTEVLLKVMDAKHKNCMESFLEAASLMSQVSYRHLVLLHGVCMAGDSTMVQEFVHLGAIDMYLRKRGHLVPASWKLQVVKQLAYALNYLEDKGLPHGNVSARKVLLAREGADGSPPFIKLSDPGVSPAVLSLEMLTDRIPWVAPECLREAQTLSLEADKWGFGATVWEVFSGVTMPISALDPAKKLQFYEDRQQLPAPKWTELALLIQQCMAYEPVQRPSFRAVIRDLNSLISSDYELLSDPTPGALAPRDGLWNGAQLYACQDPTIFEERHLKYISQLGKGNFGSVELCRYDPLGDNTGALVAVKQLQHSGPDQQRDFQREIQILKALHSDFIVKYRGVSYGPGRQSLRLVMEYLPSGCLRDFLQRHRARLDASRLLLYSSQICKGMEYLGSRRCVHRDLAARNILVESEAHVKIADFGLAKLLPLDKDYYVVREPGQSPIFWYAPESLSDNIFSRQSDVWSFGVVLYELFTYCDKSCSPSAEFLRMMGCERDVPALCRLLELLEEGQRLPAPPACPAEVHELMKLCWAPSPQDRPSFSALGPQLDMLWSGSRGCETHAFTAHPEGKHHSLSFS
Chain of JAK2-JH1JH2 (O60674 532-1132): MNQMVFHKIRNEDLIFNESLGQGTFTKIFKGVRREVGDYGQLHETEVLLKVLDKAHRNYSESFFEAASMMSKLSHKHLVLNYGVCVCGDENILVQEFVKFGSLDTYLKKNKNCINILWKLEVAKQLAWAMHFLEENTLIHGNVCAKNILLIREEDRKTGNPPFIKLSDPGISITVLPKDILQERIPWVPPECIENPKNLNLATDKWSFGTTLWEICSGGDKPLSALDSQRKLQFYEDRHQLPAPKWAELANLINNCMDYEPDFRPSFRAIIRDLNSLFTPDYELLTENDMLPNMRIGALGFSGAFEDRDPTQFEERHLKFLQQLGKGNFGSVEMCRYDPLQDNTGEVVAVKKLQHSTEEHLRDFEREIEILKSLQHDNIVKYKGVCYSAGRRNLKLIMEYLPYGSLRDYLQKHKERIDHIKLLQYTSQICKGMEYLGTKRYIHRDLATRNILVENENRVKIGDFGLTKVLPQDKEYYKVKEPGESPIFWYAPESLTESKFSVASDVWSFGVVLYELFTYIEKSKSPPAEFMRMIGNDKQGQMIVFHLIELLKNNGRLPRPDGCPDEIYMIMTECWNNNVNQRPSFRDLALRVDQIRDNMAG
Chain of JAK1-JH1JH2 (P23458 574-1154): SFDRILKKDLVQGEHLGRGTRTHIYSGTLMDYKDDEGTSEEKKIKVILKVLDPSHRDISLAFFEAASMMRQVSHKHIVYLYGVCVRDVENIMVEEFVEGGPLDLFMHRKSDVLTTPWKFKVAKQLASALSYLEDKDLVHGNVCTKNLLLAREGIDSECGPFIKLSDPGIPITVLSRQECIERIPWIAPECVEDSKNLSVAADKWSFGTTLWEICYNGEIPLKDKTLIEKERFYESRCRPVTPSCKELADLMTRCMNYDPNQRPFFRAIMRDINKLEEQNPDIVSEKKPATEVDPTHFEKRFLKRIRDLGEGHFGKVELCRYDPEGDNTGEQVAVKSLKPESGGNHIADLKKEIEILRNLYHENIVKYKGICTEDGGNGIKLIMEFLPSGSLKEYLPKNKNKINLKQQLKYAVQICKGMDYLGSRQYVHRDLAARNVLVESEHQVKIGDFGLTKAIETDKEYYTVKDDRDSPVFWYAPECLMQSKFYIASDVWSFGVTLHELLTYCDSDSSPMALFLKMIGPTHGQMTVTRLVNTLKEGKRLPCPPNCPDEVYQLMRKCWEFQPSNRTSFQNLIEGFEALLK

As to `N#CC[C@H]1CC[C@H](n2c(C(=O)NCC3(O)COC3)nc3cnc4[nH]ccc4c32)CC1` [Ex. 80, 1-((1r,4r)-4-(Cyanomethyl)cyclohexyl)-N-((3-hydroxyoxetan-3-yl)methyl)-1,6-dihydroimidazo[4,5-d]pyrrolo[2,3-b]pyridine-2-carboxamide], the IC50 in assay [1] amounted to 0.4 nM; in assay [2] it was 2.1 nM; in assay [3], 89.7 nM; in assay [4], 4.1 nM.

Take `Cc1cc(-c2nc3cnc4[nH]ccc4c3n2[C@H]2CC[C@H](CC#N)CC2)[nH]n1` [Ex. 81, 2-((1r,4r)-4-(2-(3-Methyl-1H-pyrazol-5-yl)imidazo[4,5-d]pyrrolo[2,3-b]pyridin-1(6H)-yl)cyclohexyl)acetonitrile]: the concentration for half-maximal inhibition (IC50) in assay [1] is 0.4 nM; in assay [2], 3.7 nM; in assay [3] it was 117 nM; in assay [4], 6 nM.

As for `N#CC[C@H]1CC[C@H](n2c(CNC(=O)c3ccc(C#N)cc3)nc3cnc4[nH]ccc4c32)CC1` [Ex. 82, 4-Cyano-N-((1-((1r,4r)-4-(cyanomethyl)cyclohexyl)-1,6-dihydroimidazo[4,5-d]pyrrolo[2,3-b]pyridin-2-yl)methyl)benzamide], the IC50 in assay [1] was determined as 0.4 nM; in assay [2], 13.6 nM; in assay [3], 189 nM; in assay [4] it was 5.2 nM.

Turning to `N#CC[C@H]1CC[C@H](n2c(CC(=O)NC3CCSCC3)nc3cnc4[nH]ccc4c32)CC1` [Ex. 83, 2-(1-((1r,4r)-4-(Cyanomethyl)cyclohexyl)-1,6-dihydroimidazo[4,5-d]pyrrolo[2,3-b]pyridin-2-yl)-N-(tetrahydro-2H-thiopyran-4-yl)acetamide], the IC50 in assay [1] worked out at 0.4 nM; in assay [2] it was 4.1 nM; in assay [3] it was 30 nM; in assay [4] it was 9.4 nM.

In the case of `CN1CCC(NC(=O)c2nc3cnc4[nH]ccc4c3n2[C@H]2CC[C@H](CC#N)CC2)CC1` [Ex. 84, 1-((1r,4r)-4-(Cyanomethyl)cyclohexyl)-N-(1-methylpiperidin-4-yl)-1,6-dihydroimidazo[4,5-d]pyrrolo[2,3-b]pyridine-2-carboxamide], the IC50 turned out to be 0.4 nM in assay [1], 27.1 nM in assay [2], 1120 nM in assay [3] and 10.4 nM in assay [4].

Turning to `CC(=N)NCc1nc2cnc3[nH]ccc3c2n1[C@H]1CC[C@H](CC#N)CC1` [Ex. 86, N-((1-((1r,4r)-4-(Cyanomethyl)cyclohexyl)-1,6-dihydroimidazo[4,5-d]pyrrolo[2,3-b]pyridin-2-yl)methyl)acetimidamide], the IC50 in assay [1] was 0.4 nM; in assay [2] it was 14 nM; in assay [3] it was 2270 nM; in assay [4] it was 2.6 nM.

With `N#CC[C@H]1CC[C@H](n2c(CC(=O)N3CCC(Cc4ccccc4)CC3)nc3cnc4[nH]ccc4c32)CC1` [Ex. 87, 2-((1r,4r)-4-(2-(2-(4-Benzylpiperidin-1-yl)-2-oxoethyl)imidazo[4,5-d]pyrrolo[2,3-b]pyridin-1(6H)-yl)cyclohexyl)acetonitrile], the IC50 in assay [1] was under 0.4 nM; in assay [2], 27.7 nM; in assay [3], 274 nM; in assay [4] it was 10.3 nM.

On to `CNc1nccc(-c2nc3cnc4[nH]ccc4c3n2[C@H]2CC[C@H](CC#N)CC2)n1` [Ex. 89, 2-((1r,4r)-4-(2-(2-(Methylamino)pyrimidin-4-yl)imidazo[4,5-d]pyrrolo[2,3-b]pyridin-1(6H)-yl)cyclohexyl)acetonitrile], for which the half-inhibitory concentration (IC50) in assay [1] turned out to be 0.4 nM; in assay [2], 3.4 nM; in assay [3], 60.6 nM; in assay [4] it was 18 nM.

On to `N#CC[C@H]1CC[C@H](n2c(CC(=O)N3CCCCC3)nc3cnc4[nH]ccc4c32)CC1` [Ex. 90, 2-((1r,4r)-4-(2-(2-Oxo-2-(piperidin-1-yl)ethyl)imidazo[4,5-d]pyrrolo[2,3-b]pyridin-1(6H)-yl)cyclohexyl)acetonitrile], for which the concentration for half-maximal inhibition (IC50) in assay [1] is under 4 nM; in assay [2], 8.1 nM; in assay [3] it was 85 nM; in assay [4], about 2.4 nM.

Take `CS(=O)(=O)c1ccc(-c2ccc(-c3nc4cnc5[nH]ccc5c4n3[C@H]3CC[C@H](CC#N)CC3)cc2)cc1` [Ex. 91, 2-((1r,4r)-4-(2-(4′-(Methylsulfonyl)-[1,1′-biphenyl]-4-yl)imidazo[4,5-d]pyrrolo[2,3-b]pyridin-1(6H)-yl)cyclohexyl)acetonitrile]: the IC50 in assay [1] was 0.4 nM; in assay [2] it was 30.1 nM; in assay [3], 851 nM; in assay [4], 35.5 nM.

For the molecule `N#CC[C@H]1CC[C@H](n2c(-c3ccc(C(=O)c4ccccc4)cc3)nc3cnc4[nH]ccc4c32)CC1` [Ex. 92, 2-((1r,4r)-4-(2-(4-Benzoylphenyl)imidazo[4,5-d]pyrrolo[2,3-b]pyridin-1(6H)-yl)cyclohexyl)acetonitrile], the IC50 in assay [1] came to 0.4 nM; in assay [2] it was 11.7 nM; in assay [3], 874 nM; in assay [4] it was 33.6 nM.

For the molecule `CC(C)(O)C1CCN(C(=O)Cc2nc3cnc4[nH]ccc4c3n2[C@H]2CC[C@H](CC#N)CC2)CC1` [Ex. 93, 2-((1r,4r)-4-(2-(2-(4-(2-Hydroxypropan-2-yl)piperidin-1-yl)-2-oxoethyl)imidazo[4,5-d]pyrrolo[2,3-b]pyridin-1(6H)-yl)cyclohexyl)acetonitrile], the IC50 is 0.5 nM in assay [1], 12 nM in assay [2], 181 nM in assay [3] and 4.5 nM in assay [4].

As for `N#CC[C@H]1CC[C@H](n2c(CNC(=O)CC3CC3)nc3cnc4[nH]ccc4c32)CC1` [Ex. 94, N-((1-((1r,4r)-4-(Cyanomethyl)cyclohexyl)-1,6-dihydroimidazo[4,5-d]pyrrolo[2,3-b]pyridin-2-yl)methyl)-2-cyclopropylacetamide], the 50% inhibitory concentration (IC50) in assay [1] was determined as 0.5 nM; in assay [2], 20.5 nM; in assay [3], 264 nM; in assay [4], 12.1 nM.

In the case of `N#CC[C@H]1CC[C@H](n2c(CN/C(CC3CCCCC3)=N/O)nc3cnc4[nH]ccc4c32)CC1` [Ex. 95], the half-maximal inhibitory concentration (IC50) in assay [1] was 0.5 nM; in assay [2] it was 0.6 nM; in assay [3] it was 18.7 nM; in assay [4], 1.4 nM.

Regarding `N#CC[C@H]1CC[C@H](n2c(-c3ccc(C#N)cc3)nc3cnc4[nH]ccc4c32)CC1` [Ex. 96, 4-(1-((1r,4r)-4-(Cyanomethyl)cyclohexyl)-1,6-dihydroimidazo[4,5-d]pyrrolo[2,3-b]pyridin-2-yl)benzonitrile], the 50% inhibitory concentration (IC50) in assay [1] stood at 0.5 nM; in assay [2], 33.8 nM; in assay [3], 460 nM; in assay [4] it was 49.6 nM.

As to `N#CC[C@H]1CC[C@H](n2c(CNS(=O)(=O)c3ccc(C#N)cc3)nc3cnc4[nH]ccc4c32)CC1` [Ex. 97, 4-Cyano-N-((1-((1r,4r)-4-(cyanomethyl)cyclohexyl)-1,6-dihydroimidazo[4,5-d]pyrrolo[2,3-b]pyridin-2-yl)methyl)benzenesulfonamide], the IC50 in assay [1] came to 0.5 nM; in assay [2], 45.1 nM; in assay [3], 3880 nM; in assay [4] it was 26.9 nM.

With `CSc1nccc(-c2nc3cnc4[nH]ccc4c3n2[C@H]2CC[C@H](CC#N)CC2)n1` [Ex. 98, 2-((1r,4r)-4-(2-(2-(Methylthio)pyrimidin-4-yl)imidazo[4,5-d]pyrrolo[2,3-b]pyridin-1(6H)-yl)cyclohexyl)acetonitrile], the IC50 in assay [1] worked out at 0.5 nM; in assay [2] it was 9.3 nM; in assay [3], 117 nM; in assay [4] it was 13 nM.

`C[Si](C)(C)CNC(=O)Cc1nc2cnc3[nH]ccc3c2n1[C@H]1CC[C@H](CC#N)CC1` [Ex. 99, 2-(1-((1r,4r)-4-(Cyanomethyl)cyclohexyl)-1,6-dihydroimidazo[4,5-d]pyrrolo[2,3-b]pyridin-2-yl)-N-((trimethylsilyl)methyl)acetamide]: the IC50 was found to be 0.5 nM in assay [1], 30.9 nM in assay [2], 276 nM in assay [3] and 29.2 nM in assay [4].

With `CC(C)(C)C/C(=N/O)NCc1nc2cnc3[nH]ccc3c2n1[C@H]1CC[C@H](CC#N)CC1` [Ex. 101], the IC50 in assay [1] turned out to be 0.5 nM; in assay [2], 29.7 nM; in assay [3], 182 nM; in assay [4], 6.7 nM.

For the molecule `N#CC[C@H]1CC[C@H](n2c(CC(=O)NCC(O)c3ccccc3)nc3cnc4[nH]ccc4c32)CC1` (stereo partly shown) [Ex. 102, 2-(1-((1r,4r)-4-(Cyanomethyl)cyclohexyl)-1,6-dihydroimidazo[4,5-d]pyrrolo[2,3-b]pyridin-2-yl)-N-(2-hydroxy-2-phenylethyl)acetamide], the half-maximal inhibitory concentration (IC50) came out at 0.5 nM in assay [1], 11.5 nM in assay [2], 201 nM in assay [3] and 7.4 nM in assay [4].

For `N#CC[C@H]1CC[C@H](n2c(CC(=O)N3CCC(C#N)CC3)nc3cnc4[nH]ccc4c32)CC1` [Ex. 105, 1-(2-(1-((1r,4r)-4-(Cyanomethyl)cyclohexyl)-1,6-dihydroimidazo[4,5-d]pyrrolo[2,3-b]pyridin-2-yl)acetyl)piperidine-4-carbonitrile], the IC50 stood at 0.6 nM in assay [1], 19.4 nM in assay [2], 204 nM in assay [3] and 6.9 nM in assay [4].

For the molecule `N#CC[C@H]1CC[C@H](n2c(CC(=O)NCC(O)CO)nc3cnc4[nH]ccc4c32)CC1` (stereo partly shown) [Ex. 106, 2-(1-((1r,4r)-4-(Cyanomethyl)cyclohexyl)-1,6-dihydroimidazo[4,5-d]pyrrolo[2,3-b]pyridin-2-yl)-N-(2,3-dihydroxypropyl)acetamide], the IC50 in assay [1] was found to be 0.6 nM; in assay [2], 14.3 nM; in assay [3], 149 nM; in assay [4], 11.2 nM.

Broadly, the IC50 is the concentration that gives 50% inhibition.
